We go through seven compounds from patent US20240293361A1, “Use of Statins to Treat or Prevent Drug-Induced Hearing Loss” (The United States of America, as represented by the …, priority 2020, published 2024).

The test system of data set [1] is cisplatin-induced hearing loss in patients with head and neck cancer. In words: Clinical hearing status (PTA of 1, 2 and 4 kHz) at follow-up after cisplatin therapy. It counts as in vivo, human.
For data set [2] the following is noted: Schachter et al., 2005; cited from earlier work.
For data set [3], the system named is cytochrome P(450) enzymes. Conditions: Schachter et al., 2005; cited from earlier work.
For data set [4], the system named is patients treated with atorvastatin. Particulars: cited from earlier work.
For data set [5] the following is noted: cited from earlier work.
Data set [6] has as its system cisplatin-induced hearing loss in patients with head and neck cancer. The source says: (§1) The primary outcome measure was the difference in incidence of a change in hearing between the baseline hearing test and the post-treatment hearing test, per ear, as defined by established ototoxicity grading scales. These scales report subjects who transition from normal hearing to hearing loss as well as those who transition from some hearing loss to more hearing loss. The criteria of two different grading scales was applied to the dataset (Table 4). The NCI CTCAEv5.0(34) classifies adverse changes in hearing based on auditory threshold shifts across a 1-8 KHz frequency range. TUNE ototoxicity grading criteria (Theunissen et al., 2014), which incorporate extended high frequency (EHF) data was also applied (see Table 5, FIG. 5).
The primary outcome measure was based on changes in hearing as defined by CTCAEv5.0 scale criteria (see Table 4) and were analyzed using categorical incidence (per ear) data. The incidence and severity distribution of a clinically meaningful hearing change, per ear, relative to statin use was analyzed using chi-square analyses (SAS PROC FREQ procedure). […] A logistic regression analysis (SAS PROC LOGISTIC procedure) with calculation of odds ratios and 95% confidence intervals was performed to identify associations between CTCAE-defined changes in hearing and statin use after adjustment for significant covariates.

Data set [7] deals with patients with HNSCC. In words: 3-year overall and disease-free survival (Kaplan-Meier, log-rank). It counts as in vivo, human. Particulars: URMC data n=175; log-rank (Mantel-Cox). Here is the method: Overall survival and disease-free survival were calculated as Kaplan-Meier curves using Prism v8 software on all available data from URMC at up to 3 years post treatment (N=175). Survival curves were compared using the log-rank (Mantel-Cox) test. Cochlear radiation dose data presented in FIG. 6 were analyzed using Pearson R and Spearman R correlation analysis within Prism v8.
Overall survival at 3 years was approximately 80% (FIG. 4). An exact median survival time could not be calculated due to the number of patients censored/lost to follow-up.

For data set [8], the system named is cisplatin-induced hearing loss in patients with head and neck cancer.
From the text: as §1
Changes in hearing were primarily defined using CTCAEv5.0 criteria (Theunissen et al., 2014). However, cisplatin-induced ototoxicity is characterized initially as a high frequency (above 8 kHz) hearing loss that can spread to include lower frequencies (Brock et al., 1991). Therefore, the TUNE grading scale (Theunissen et al., 2014) was applied, which reports incidence and severity of hearing loss based on shifts in auditory thresholds across two frequency ranges: 1-4 kHz and 8-12.5 kHz (Table 4). The higher-frequency range of the TUNE scale was modified to include 6, 8 and 12.5 kHz due to insufficient data at 10 kHz in the dataset. Because many of the subjects had some hearing loss at baseline, the TUNE criteria was further modified so that Grades 3 and 4 utilized threshold shift data instead of absolute thresholds. A TUNE Grade 3 was redefined for this study as a ≥35 dB PTA threshold shift from the baseline to the post-treatment audiogram, and similarly Grade 4 was redefined as a ≥50 dB PTA threshold shift.
Changes in hearing, defined by TUNE criteria, were analyzed using categorical incidence (per ear) data. The incidence and severity distribution of a clinically meaningful hearing change, per ear, relative to statin use was analyzed using chi-square analyses (SAS PROC FREQ procedure). […] A logistic regression analysis (SAS PROC LOGISTIC procedure) with calculation of odds ratios and 95% confidence intervals was performed to identify associations between TUNE-defined changes in hearing and statin use after adjustment for significant covariates.
The source holds these as a separate data set.

Data set [9] has as its system spiral ganglion neurons (SGN). Conditions: mouse model of noise-induced hearing loss; cited from earlier work.
In data set [10] the test system is cisplatin-induced hearing loss in mice. Conditions: cyclic administration of cisplatin; ABR testing; cited from earlier work.
In data set [11] the test system is heme oxygenase-1 (Hmox-1). Particulars: mice; cited from earlier work.
Where [12] appears, read: controlled for cumulative cisplatin dose and baseline hearing.
Setting [13] is: package insert, rate greater than placebo.

Where “and” joins values, the source holds several entries; their conditions need not be identical. Identical values can stand only once. Entries after “also recorded” stand apart in the source; their conditions may differ.

`O=C(O)C[C@H](O)C[C@H](O)/C=C/c1c(C2CC2)nc2ccccc2c1-c1ccc(F)cc1` [pitavastatin]: the “change of hearing status over cisplatin therapy, in words” value in data set [1] (n=2 subjects) was “started and ended therapy with a bilateral mild hearing loss”. Also, in data set [1] (post-cisplatin therapy), the “hearing status at follow-up: Mild (PTA >20, <40), number of ears” value was 4 No. Ears; the “hearing status at follow-up: Mild (PTA >20, <40), percent of ears” value was “(100.00) %”; the “hearing status at follow-up: Moderate (PTA ≥40, ≤70), number of ears” value (shortened to “hearing status … (PTA ≥40, ≤70), number of ears”) was 0 No. Ears; the “hearing status at follow-up: Normal (PTA ≤20), number of ears” value (“hearing status … (PTA ≤20), number of ears” for short) is 0 No. Ears. In data set [1] (post-cisplatin therapy), the “hearing status at follow-up: Profound (PTA ≥95), number of ears” value (“hearing status … (PTA ≥95), number of ears” for short) was determined as 0 No. Ears and the “hearing status at follow-up: Severe (PTA >70, <95), number of ears” value was 0 No. Ears. Moreover, the lipophilicity result in data set [2] is given as “relatively lipophilic”. For the same compound, in data set [3], the “metabolism by the cytochrome P(450) system” value is given as “limited metabolism”.
Take `CC(C)c1c(C(=O)Nc2ccccc2)c(-c2ccccc2)c(-c2ccc(F)cc2)n1CC[C@@H](O)C[C@@H](O)CC(=O)[O-].CC(C)c1c(C(=O)Nc2ccccc2)c(-c2ccccc2)c(-c2ccc(F)cc2)n1CC[C@@H](O)C[C@@H](O)CC(=O)[O-].[Ca+2]` [atorvastatin calcium]: in data set [4] (human, in vivo), the “incidence of persistent serum transaminase elevations, 10 mg” value was 0.2%; the “incidence of persistent serum transaminase elevations, 20 mg” value is given as 0.2%; the “incidence of persistent serum transaminase elevations, 40 mg” value was 0.6%; the “incidence of persistent serum transaminase elevations, 80 mg” value is reported as 2.3%. For the same compound, the “patients with persistent elevations (>3 times ULN on 2 or more occasions) in serum transaminases” value in data set [4] (human, in vivo) was 0.7%.
Take `CC(C)n1c(/C=C/C(O)CC(O)CC(=O)O)c(-c2ccc(F)cc2)c2ccccc21` (stereo not shown) [fluvastatin]: the elimination half-life in data set [5] (Schachter et al., 2005) is 1 h. In addition, the lipophilicity result in data set [2] is given as “relatively lipophilic”.
The term half-life denotes the time in which the quantity being followed falls by half. Take `CCC(C)(C)C(=O)O[C@H]1C[C@@H](C)C=C2C=C[C@H](C)[C@H](CC[C@@H]3C[C@@H](O)CC(=O)O3)[C@H]21` [simvastatin]: the half-life in data set [5] (Sirtori et al., 2014) was 12 h.
For the compound `CC(C)c1c(C(=O)Nc2ccccc2)c(-c2ccccc2)c(-c2ccc(F)cc2)n1CC[C@@H](O)C[C@@H](O)CC(=O)O` [atorvastatin], in data set [1] (post-cisplatin therapy), the “hearing status at follow-up: Mild (PTA >20, <40), number of ears” value came to 49 No. Ears; the “hearing status at follow-up: Mild (PTA >20, <40), percent of ears” value is “(50.52) %”; the “hearing status … (PTA ≥40, ≤70), number of ears” value is listed as 21 No. Ears; the “hearing status at follow-up: Moderate (PTA ≥40, ≤70), percent of ears” value was “(21.65) %”. Further, in data set [1] (post-cisplatin therapy), the “hearing status … (PTA ≤20), number of ears” value came to 26 No. Ears; the “hearing status at follow-up: Normal (PTA ≤20), percent of ears” value is listed as “(26.80) %”; the “hearing status … (PTA ≥95), number of ears” value was 3 No. Ears; the “hearing status at follow-up: Profound (PTA ≥95), percent of ears” value is “(3.00) %”. For the same compound, in data set [1] (post-cisplatin therapy), the “hearing status at follow-up: Severe (PTA >70, <95), number of ears” value stood at 1 No. Ears and the “hearing status at follow-up: Severe (PTA >70, <95), percent of ears” value was “(1.03) %”. In data set [6] (atorvastatin (20 mg) group as worded), the “hearing loss, CTCAEv5.0 Grade ≥2 criteria, retrospective data used for power analysis” value was about 16.7%. For the same compound, the “less likely to acquire a CTCAE-defined cisplatin-induced hearing loss than a non-statin user” value in data set [6] (setting [12]) is 53%. Further, in data set [6] (observational data), the “less likely to develop a cisplatin-related hearing loss, once daily atorvastatin vs not on atorvastatin” value worked out at 45%. Moreover, in data set [6] (observational data, 95% CI: 0.327-0.942), the “OR for cisplatin-related hearing loss, once daily atorvastatin vs not on atorvastatin” value is reported as 0.55. In addition, in data set [6] (per patient, in at least one ear), the “incidence of a CTCAEv5.0-grade hearing loss, patients” value is 46%. For the same compound, the “incidence of CTCAE grade ≥2 hearing change” value in [6] (percentage of ears) was 9.7%. In addition, the “incidence of CTCAE Grade 1 or higher hearing loss” value in [6] (percentage of ears, full cohort) is 31.2% and 31%. In data set [6] (subgroup, % of ears), the “incidence of CTCAE-defined hearing loss, chemoradiation therapy” value came out at 31.2%; the “incidence of CTCAE-defined hearing loss, higher cumulative cisplatin doses (>200 mg/m^2)” value is given as 31.7%; the “incidence of CTCAE-defined hearing loss, males” value came to 30.4%; the “incidence of CTCAE-defined hearing loss, mild hearing loss at baseline” value is given as 26.8%. In addition, in data set [7], the “3-year disease-free survival compared with non-statin users” value is given as “no significant differences” and the “3-year overall survival compared with non-statin users” value was “did not have a significant effect on patient survival; also recorded: no significant differences”. For the same compound, in [4] (20 mg once daily, adults, literature, listed as Atorvastatin), the “safety and tolerability of the 20 mg dose” value is listed as “very low incidence of adverse effects”. Besides, the “Food and Drug Administration pregnancy classification” value in [4] (human, in vivo) is reported as “Category X”. Also, in data set [4] (setting [13]), the “alanine aminotransferase increase leading to treatment discontinuation” value is reported as 0.4%, the “diarrhea leading to treatment discontinuation” value was 0.5%, the “hepatic enzyme increase leading to treatment discontinuation” value is 0.4% and the “myalgia leading to treatment discontinuation” value is given as 0.7%. Moreover, the “nausea leading to treatment discontinuation” value in data set [4] (setting [13]) was 0.4%. Besides, the “less likely to acquire a TUNE-defined cisplatin-induced hearing loss than a non-statin user” value in [8] (setting [12]) was 56%. In addition, in [8] (in vivo), the “incidence of TUNE grade 2 or higher change in hearing” value is listed as 14.4%. For the same compound, in data set [8] (percent of ears), the “incidence of TUNE Grade 1 or higher hearing loss” value came out at 34%. In addition, in data set [9], the “elongation of SGN processes” value is listed as “promoted the elongation of SGN processes”.
Turning to `CC[C@H](C)C(=O)O[C@H]1C[C@H](O)C=C2C=C[C@H](C)[C@H](CC[C@@H](O)C[C@@H](O)CC(=O)O)[C@H]21` [pravastatin], in data set [1] (post-cisplatin therapy), the “hearing status at follow-up: Mild (PTA >20, <40), number of ears” value worked out at 8 No. Ears; the “hearing status at follow-up: Mild (PTA >20, <40), percent of ears” value is listed as “(33.33) %”; the “hearing status … (PTA ≥40, ≤70), number of ears” value is listed as 6 No. Ears; the “hearing status at follow-up: Moderate (PTA ≥40, ≤70), percent of ears” value is “(25.00) %”. For the same compound, in data set [1] (post-cisplatin therapy), the “hearing status … (PTA ≤20), number of ears” value is given as 9 No. Ears; the “hearing status at follow-up: Normal (PTA ≤20), percent of ears” value was “(37.50) %”; the “hearing status … (PTA ≥95), number of ears” value is reported as 0 No. Ears; the “hearing status at follow-up: Severe (PTA >70, <95), number of ears” value was 1 No. Ears. In [1] (post-cisplatin therapy), the “hearing status at follow-up: Severe (PTA >70, <95), percent of ears” value was “(4.17) %”. The hepatoselectivity entry in data set [5] (compared with lipophilic agents, Schachter et al., 2005) is on record as “greater hepatoselectivity”. For the same compound, the lipophilicity entry in [2] is listed as “relatively hydrophilic”. Further, the “metabolism by the cytochrome P(450) system” value in [3] was “not significantly metabolized”.
Consider `CC[C@H](C)C(=O)O[C@H]1C[C@@H](C)C=C2C=C[C@H](C)[C@H](CC[C@@H]3C[C@@H](O)CC(=O)O3)[C@H]21` [lovastatin], for which, in [1] (post-cisplatin therapy), the “hearing status at follow-up: Mild (PTA >20, <40), number of ears” value is reported as 4 No. Ears; the “hearing status at follow-up: Mild (PTA >20, <40), percent of ears” value is reported as “(100.00) %”; the “hearing status … (PTA ≥40, ≤70), number of ears” value is on record as 0 No. Ears; the “hearing status … (PTA ≤20), number of ears” value worked out at 0 No. Ears. Also, in data set [1] (post-cisplatin therapy), the “hearing status … (PTA ≥95), number of ears” value amounted to 0 No. Ears and the “hearing status at follow-up: Severe (PTA >70, <95), number of ears” value is 0 No. Ears. In addition, in data set [10], the “effect on cisplatin-induced hearing loss / ototoxicity in mice” value is listed as “reduces cisplatin-induced hearing loss; also recorded: reduced cisplatin ototoxicity”. In addition, in data set [11], the “Hmox-1 mRNA” value is “induced Hmox-1 mRNA”. Moreover, in data set [2], the lipophilicity result is listed as “relatively lipophilic”. In addition, the “elongation of SGN processes” value in data set [9] is given as “promoted the elongation of SGN processes”.
